According to patent US6689922B1, “Vitamin D analogues” (Galderma Research & Development S.N.C., priority 1998, dated 2004):

Biological target: T1, vitamin D receptors (Mus musculus, UniProt P48281)
T1 construct: the skin treated is removed and the epidermis is separated from the dermis; from tissue; host or cells: epidermis of SKH mice (in vivo, topical application)
T1 sequence (P48281 1-422): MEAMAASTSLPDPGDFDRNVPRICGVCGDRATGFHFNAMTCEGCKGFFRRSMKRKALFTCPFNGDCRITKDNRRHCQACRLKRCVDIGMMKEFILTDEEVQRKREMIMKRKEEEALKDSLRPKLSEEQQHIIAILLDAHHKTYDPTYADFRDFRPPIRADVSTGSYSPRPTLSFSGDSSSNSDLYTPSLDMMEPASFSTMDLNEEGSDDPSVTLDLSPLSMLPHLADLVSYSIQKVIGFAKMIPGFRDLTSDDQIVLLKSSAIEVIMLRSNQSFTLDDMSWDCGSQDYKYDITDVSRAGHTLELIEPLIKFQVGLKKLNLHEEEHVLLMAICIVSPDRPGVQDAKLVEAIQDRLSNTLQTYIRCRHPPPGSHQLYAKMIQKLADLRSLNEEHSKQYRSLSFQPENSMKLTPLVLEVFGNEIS
Assay: Induction of 24-Hydroxylase mRNA in the epidermis of SKH mice after a single topical application (semiquantitative PCR)
Format: in vivo
Settings: for Expression of the mRNA for 24-Hydroxylase: Induction factor versus ethanol: single topical application of 50 μl to the back, epidermis 8 hours after application, normalized to GAPDH mRNA
Description: The test protocol used is the following:
SKH mice receive a single topical application of a compound according to the invention in solution in ethanol in increasing concentrations. A volume of 50 μl of the product to be tested or of the vehicle alone is applied to the back of the mice with the aid of a pipette.
A volume of 50 μl of the product to be tested or of the vehicle alone is applied to the back of the mice with the aid of a pipette.
8 hours after the topical application, the mice are humanely killed, the skin treated is removed and the epidermis is separated from the dermis. The quantification of the mRNA for 24-Hydroxylase is carried out by semiquantitative PCR.

[1] = concentration 0.1 % (weight/volume) in ethanol
[2] = concentration 1 % (weight/volume) in ethanol

Structure (SMILES) | Expression of the mRNA for 24-Hydroxylase: Induction factor versus ethanol [1] | Expression of the mRNA for 24-Hydroxylase: Induction factor versus ethanol [2] | Activity (induction of 24-Hydroxylase mRNA) compared with 1,25-(OH)2-vitamin D3 (at the concentration of 1%, single topical application, SKH mice)
CCC(O)(CC)CC/C=C(\C)c1cccc(OCc2ccc(CO)c(CO)c2)c1 [Example 72, (E)-7-[3-(3,4-bis-Hydroxymethylbenzyloxy)phenyl]-3-ethyloct-6-en-3-ol] | 17 |  | 
CC/C(=C\C=C\C(O)(CC)CC)c1cccc(OCc2ccc(CO)c(CO)c2)c1 [Example 68, (4E,6E)-7-[3-(3,4-bis-Hydroxymethylbenzyloxy)phenyl]-3-ethylnona-4,6-dien-3-ol] | 25 |  | 
CCC(O)(/C=C/C=C(\C)c1cccc(CCc2ccc(CO)c(CO)c2)c1)CC [Example 59, (4E,6E)-7-{3-[2-(3,4-bis-Hydroxymethylphenyl)ethyl]-phenyl}-3-ethylocta-4,6-dien-3-ol] | 20.5 |  | 
CCC(O)(/C=C/C=C(\C)c1cccc(OCc2ccc(CO)c(CO)c2)c1)CC [Example 65, (4E,6E)-7-[3-(3,4-bis-Hydroxymethylbenzyloxy)phenyl]-3-ethylocta-4,6-dien-3-ol] |  | 15 | 
CC(=CC=CC(C)(C)O)c1cccc(OCc2ccc(CO)c(CO)c2)c1 [Example 4, 6-[3-(3,4-bis-Hydroxymethylbenzyloxy)phenyl]-2-methylhepta-3,5-dien-2-ol] |  | 11 | comparable to that of 1,25-(OH)2-vitamin D3 at 0.001%

Continued, in another order:

Expression of the mRNA for 24-Hydroxylase: Induction factor versus ethanol [1] | Expression of the mRNA for 24-Hydroxylase: Induction factor versus ethanol [2] | Structure (SMILES) | Activity (induction of 24-Hydroxylase mRNA) compared with 1,25-(OH)2-vitamin D3 (at the concentration of 1%, single topical application, SKH mice)
 | 10 | CCC(O)(/C=C/C=C(\C)c1cccc(C=Cc2ccc(CO)c(CO)c2)c1)CC [Example 61, (4E-6E)-7-{3-[2-(3,4-bis-Hydroxymethylphenyl}vinyl]-phenyl)-3-ethylocta-4,6-dien-3-ol] | 
21 |  | CCC(O)(/C=C/C=C(\C)c1cccc(COc2ccc(CO)c(CO)c2)c1)CC [Example 82, (4E,6E)-7-[3-(3,4-bis-Hydroxymethylphenoxy-methyl)phenyl]-3-ethylocta-4,6-dien-3-ol] | 
